ChEMBL document CHEMBL1909046, “DrugMatrix in vitro pharmacology data”

What was measured:
[1] = target: Beta-1 adrenergic receptor (Homo sapiens, UniProt P08588); test: DRUGMATRIX: Adrenergic beta1 radioligand binding (ligand: [125I] Cyanopindolol); format: cell membranes, CHO-K1, Membrane; settings: cho-k1; Not Active = under 50% inhibition at 10 µM
Calcitonin receptor = target: T1, Calcitonin receptor (Homo sapiens, UniProt P30988); format: cell membranes, Membrane; settings: t47d; further: in other assays of this panel Not Active means under 50% inhibition at 10 µM
T1 sequence (P30988 whole entry): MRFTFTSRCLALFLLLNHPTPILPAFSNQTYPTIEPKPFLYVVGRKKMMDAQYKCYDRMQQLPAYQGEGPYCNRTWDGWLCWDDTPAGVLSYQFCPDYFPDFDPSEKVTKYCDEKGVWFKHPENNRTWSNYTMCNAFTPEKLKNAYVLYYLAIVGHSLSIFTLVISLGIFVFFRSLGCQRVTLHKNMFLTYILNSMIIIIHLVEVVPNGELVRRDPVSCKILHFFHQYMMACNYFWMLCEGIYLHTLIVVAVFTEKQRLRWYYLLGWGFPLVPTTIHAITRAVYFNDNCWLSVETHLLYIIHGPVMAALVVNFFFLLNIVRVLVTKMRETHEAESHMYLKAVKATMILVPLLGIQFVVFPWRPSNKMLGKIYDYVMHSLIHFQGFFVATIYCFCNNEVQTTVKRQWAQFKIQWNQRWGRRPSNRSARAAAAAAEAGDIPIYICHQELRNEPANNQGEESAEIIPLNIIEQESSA

[2] = target: Vascular endothelial growth factor receptor 1 (Homo sapiens, UniProt P17948); format: cell-based; settings: huvec; further: in other assays of this panel Not Active means under 50% inhibition at 10 µM
Sequence of Vascular endothelial growth factor receptor 1 (P17948 whole entry): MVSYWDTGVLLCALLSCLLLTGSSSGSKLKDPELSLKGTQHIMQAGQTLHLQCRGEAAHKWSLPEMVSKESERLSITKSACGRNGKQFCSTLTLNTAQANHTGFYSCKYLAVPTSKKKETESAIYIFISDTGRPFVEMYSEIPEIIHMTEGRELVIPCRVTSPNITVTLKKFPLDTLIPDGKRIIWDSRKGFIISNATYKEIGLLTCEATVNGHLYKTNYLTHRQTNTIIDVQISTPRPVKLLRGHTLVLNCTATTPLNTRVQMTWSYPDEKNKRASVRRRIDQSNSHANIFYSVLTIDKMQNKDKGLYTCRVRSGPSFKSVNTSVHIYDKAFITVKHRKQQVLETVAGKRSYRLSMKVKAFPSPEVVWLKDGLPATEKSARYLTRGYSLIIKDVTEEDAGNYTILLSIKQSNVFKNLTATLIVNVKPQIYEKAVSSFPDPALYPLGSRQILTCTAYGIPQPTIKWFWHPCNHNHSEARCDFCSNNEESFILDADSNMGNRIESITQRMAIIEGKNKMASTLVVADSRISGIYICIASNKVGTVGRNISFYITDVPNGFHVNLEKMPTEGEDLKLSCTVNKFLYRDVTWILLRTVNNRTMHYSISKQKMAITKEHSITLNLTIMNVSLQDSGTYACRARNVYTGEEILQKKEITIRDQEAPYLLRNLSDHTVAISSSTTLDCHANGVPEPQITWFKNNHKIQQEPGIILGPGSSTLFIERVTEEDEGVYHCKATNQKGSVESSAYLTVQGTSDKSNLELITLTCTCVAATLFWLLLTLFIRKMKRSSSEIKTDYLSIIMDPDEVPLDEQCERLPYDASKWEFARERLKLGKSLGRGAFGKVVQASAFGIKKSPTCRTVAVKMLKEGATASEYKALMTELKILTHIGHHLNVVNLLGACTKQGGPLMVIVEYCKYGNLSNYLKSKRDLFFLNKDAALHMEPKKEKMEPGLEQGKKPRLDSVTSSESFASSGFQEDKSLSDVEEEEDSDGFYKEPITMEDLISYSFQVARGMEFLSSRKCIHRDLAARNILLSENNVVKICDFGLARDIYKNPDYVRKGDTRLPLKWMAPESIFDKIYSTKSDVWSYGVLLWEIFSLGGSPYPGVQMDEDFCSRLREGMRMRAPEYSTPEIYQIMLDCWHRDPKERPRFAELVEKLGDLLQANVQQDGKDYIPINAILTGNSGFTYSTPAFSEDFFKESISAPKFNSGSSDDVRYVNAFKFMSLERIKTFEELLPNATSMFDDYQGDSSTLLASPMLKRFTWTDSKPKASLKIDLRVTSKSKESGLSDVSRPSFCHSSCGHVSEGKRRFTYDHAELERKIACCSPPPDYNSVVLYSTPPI

D(1A) dopamine receptor = D(1A) dopamine receptor (Homo sapiens, UniProt P21728); test: DRUGMATRIX: Dopamine D1 radioligand binding (ligand: [3H] SCH-23390); format: cell membranes, CHO, Membrane; settings: cho; Not Active = under 50% inhibition at 10 µM
Sequence of D(1A) dopamine receptor (P21728 whole entry): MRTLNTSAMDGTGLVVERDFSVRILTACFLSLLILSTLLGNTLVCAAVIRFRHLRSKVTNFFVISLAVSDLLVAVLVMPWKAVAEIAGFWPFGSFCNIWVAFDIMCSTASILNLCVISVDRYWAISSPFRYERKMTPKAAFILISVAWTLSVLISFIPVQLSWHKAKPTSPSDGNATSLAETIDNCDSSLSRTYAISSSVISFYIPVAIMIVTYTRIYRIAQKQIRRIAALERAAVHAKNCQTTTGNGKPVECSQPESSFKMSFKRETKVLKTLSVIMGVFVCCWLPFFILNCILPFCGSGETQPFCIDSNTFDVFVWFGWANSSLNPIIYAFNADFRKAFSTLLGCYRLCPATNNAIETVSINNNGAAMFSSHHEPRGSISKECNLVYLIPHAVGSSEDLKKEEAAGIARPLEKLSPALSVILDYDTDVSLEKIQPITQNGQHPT

Endothelin-1 receptor = target: T2, Endothelin-1 receptor (Homo sapiens, UniProt P25101); format: cell membranes, Membrane; settings: cho-k1; further: in other assays of this panel Not Active means under 50% inhibition at 10 µM
T2 sequence (P25101 whole entry): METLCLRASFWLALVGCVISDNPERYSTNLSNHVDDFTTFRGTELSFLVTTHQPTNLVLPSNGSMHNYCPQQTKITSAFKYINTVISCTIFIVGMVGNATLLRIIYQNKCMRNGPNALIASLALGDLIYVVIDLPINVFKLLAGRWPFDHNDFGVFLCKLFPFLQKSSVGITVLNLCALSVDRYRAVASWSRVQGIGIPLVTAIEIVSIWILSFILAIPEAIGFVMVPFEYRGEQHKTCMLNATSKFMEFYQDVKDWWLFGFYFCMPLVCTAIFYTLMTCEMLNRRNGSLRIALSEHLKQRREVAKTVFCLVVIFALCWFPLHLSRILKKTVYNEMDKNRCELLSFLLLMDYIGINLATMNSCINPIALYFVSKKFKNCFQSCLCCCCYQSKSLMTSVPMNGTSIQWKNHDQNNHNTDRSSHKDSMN

Glycine receptor = Glycine receptor (Rattus norvegicus, UniProt P22771+P24524+P07727+P20781); format: cell membranes, Wistar, Spinal cord, Membrane; further: in other assays of this panel Not Active means under 50% inhibition at 10 µM
[3] = target: T3, Muscarinic acetylcholine receptor M5 (Homo sapiens, UniProt P08912); format: cell membranes, CHO-K1, Membrane; settings: cho-k1; further: in other assays of this panel Not Active means under 50% inhibition at 10 µM
T3 sequence (P08912 whole entry): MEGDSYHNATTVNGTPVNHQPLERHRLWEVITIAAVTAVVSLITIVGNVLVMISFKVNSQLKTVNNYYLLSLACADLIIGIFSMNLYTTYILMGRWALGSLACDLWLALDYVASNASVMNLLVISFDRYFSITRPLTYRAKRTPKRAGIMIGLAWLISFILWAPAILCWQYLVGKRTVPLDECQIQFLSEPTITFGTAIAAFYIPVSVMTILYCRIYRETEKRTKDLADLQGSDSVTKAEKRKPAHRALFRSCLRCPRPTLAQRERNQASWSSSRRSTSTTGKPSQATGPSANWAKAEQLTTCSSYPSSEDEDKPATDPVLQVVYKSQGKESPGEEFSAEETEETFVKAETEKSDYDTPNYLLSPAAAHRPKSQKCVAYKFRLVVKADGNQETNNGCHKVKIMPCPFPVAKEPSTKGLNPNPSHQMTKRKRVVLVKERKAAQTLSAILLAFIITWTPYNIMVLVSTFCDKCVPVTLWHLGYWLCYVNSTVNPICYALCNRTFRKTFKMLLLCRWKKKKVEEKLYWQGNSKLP

Progesterone receptor = target: T4, Progesterone receptor (Bos taurus, UniProt Q690N0); test: DRUGMATRIX: Progesterone radioligand binding (ligand: [3H] R-5020); format: tissue-based, Uterus; settings: Not Active = under 50% inhibition at 10 µM
T4 sequence (Q690N0 whole entry): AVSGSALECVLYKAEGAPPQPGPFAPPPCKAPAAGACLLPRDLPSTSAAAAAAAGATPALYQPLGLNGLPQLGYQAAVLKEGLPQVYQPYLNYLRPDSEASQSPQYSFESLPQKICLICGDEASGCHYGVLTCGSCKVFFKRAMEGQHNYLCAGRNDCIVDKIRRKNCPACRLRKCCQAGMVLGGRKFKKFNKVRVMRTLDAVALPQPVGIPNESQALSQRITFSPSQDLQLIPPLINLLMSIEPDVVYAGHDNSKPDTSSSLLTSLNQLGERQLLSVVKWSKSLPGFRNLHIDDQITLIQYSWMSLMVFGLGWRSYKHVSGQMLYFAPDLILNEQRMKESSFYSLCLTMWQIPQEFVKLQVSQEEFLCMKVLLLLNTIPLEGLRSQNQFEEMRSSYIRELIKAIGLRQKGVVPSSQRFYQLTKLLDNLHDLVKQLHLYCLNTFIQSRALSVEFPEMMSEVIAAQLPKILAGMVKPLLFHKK

[4] = target: Mitogen-activated protein kinase 1 (Homo sapiens, UniProt P28482); test: DRUGMATRIX: Protein Serine/Threonine Kinase, ERK2 enzyme inhibition (substrate: Myelin Basic Protein); parameters: species or system Escherichia coli; settings: Not Active = under 50% inhibition at 10 µM
Sequence of Mitogen-activated protein kinase 1 (P28482 whole entry): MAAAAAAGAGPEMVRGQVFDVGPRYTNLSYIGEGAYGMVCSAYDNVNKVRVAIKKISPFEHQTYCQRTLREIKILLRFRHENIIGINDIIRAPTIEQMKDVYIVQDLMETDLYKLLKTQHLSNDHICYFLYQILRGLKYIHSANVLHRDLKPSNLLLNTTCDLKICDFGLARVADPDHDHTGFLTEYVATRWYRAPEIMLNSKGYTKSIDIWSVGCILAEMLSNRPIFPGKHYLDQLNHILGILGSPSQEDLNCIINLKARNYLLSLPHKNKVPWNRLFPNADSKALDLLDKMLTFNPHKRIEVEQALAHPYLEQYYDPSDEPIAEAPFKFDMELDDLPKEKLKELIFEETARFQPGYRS

Adenosine receptor A2a = Adenosine receptor A2a (Homo sapiens, UniProt P29274); test: DRUGMATRIX: Adenosine A2A radioligand binding (ligand: […]); format: cell membranes, HEK293, Membrane; settings: hek293; Not Active = under 50% inhibition at 10 µM
Sequence of Adenosine receptor A2a (P29274 whole entry): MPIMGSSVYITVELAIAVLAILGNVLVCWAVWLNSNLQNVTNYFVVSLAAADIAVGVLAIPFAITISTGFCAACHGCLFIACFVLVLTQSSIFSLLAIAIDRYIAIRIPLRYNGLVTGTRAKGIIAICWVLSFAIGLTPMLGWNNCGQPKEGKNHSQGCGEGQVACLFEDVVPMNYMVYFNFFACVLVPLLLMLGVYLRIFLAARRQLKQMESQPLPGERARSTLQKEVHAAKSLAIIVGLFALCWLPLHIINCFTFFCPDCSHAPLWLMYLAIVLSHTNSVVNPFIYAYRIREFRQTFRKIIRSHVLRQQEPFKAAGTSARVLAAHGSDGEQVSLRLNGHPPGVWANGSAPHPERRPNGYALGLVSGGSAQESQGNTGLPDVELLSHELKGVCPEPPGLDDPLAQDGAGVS

Measured: IC50

Sequence of Beta-1 adrenergic receptor (P08588 whole entry): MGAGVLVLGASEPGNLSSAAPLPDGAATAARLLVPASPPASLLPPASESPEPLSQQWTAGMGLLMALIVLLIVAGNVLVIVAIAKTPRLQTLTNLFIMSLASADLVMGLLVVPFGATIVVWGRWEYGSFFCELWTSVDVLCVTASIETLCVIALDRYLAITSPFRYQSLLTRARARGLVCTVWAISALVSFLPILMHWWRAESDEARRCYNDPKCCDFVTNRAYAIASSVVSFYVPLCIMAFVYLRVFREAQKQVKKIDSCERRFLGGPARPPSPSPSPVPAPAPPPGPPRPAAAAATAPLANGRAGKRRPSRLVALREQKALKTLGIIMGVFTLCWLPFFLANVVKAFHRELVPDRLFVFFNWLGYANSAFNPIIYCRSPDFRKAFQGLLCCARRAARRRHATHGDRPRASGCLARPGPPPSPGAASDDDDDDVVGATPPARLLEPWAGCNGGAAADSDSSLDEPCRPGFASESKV

C=C1[C@@H]2CCC3[C@@](CC[C@@H]4[C@H](C(=O)O)C[C@@H](O[C@@H]5O[C@H](CO)[C@@H](OS(=O)(=O)[O-])[C@H](OS(=O)(=O)[O-])[C@H]5OC(=O)CC(C)C)C[C@@]34C)(C2)[C@@H]1O.[K+].[K+] (stereo not given in full) [ATRACTYLOSIDE]
Not Active: all assays above

O=C1NC(=O)C(c2ccccc2)(c2ccccc2)N1 [PHENYTOIN]
Not Active: all assays above

O=C1OC2(c3ccc(O)cc3Oc3cc(O)ccc32)c2ccccc21 [FLUORESCEIN]
Not Active: all assays above

Cc1c(-c2ccccc2)oc2c(C(=O)OCCN3CCCCC3)cccc2c1=O [FLAVOXATE]
Not Active: all assays above

C=C1CC[C@H](O)C/C1=C/C=C1\CCC[C@]2(C)[C@@H]([C@H](C)/C=C/[C@H](C)C(C)C)CC[C@@H]12 [ERGOCALCIFEROL]
Not Active: all assays above

NCC1(CC(=O)O)CCCCC1 [GABAPENTIN]
Not Active: all assays above

O=c1cc(-c2ccccc2)oc2c1ccc1ccccc12 [ALPHA-NAPHTHOFLAVONE]
Not Active: all assays above

COc1c(N2CCNC(C)C2)c(F)cc2c(=O)c(C(=O)O)cn(C3CC3)c12 (stereo not given) [GATIFLOXACIN]
Not Active: all assays above

CC1=Nc2ccc(Cl)cc2S(=O)(=O)N1 [DIAZOXIDE]
Not Active: all assays above

CN(C)CCCC1(c2ccc(F)cc2)OCc2cc(C#N)ccc21 (stereo not given) [CITALOPRAM]
Not Active: all assays above

COc1ccc2c(c1)c(CC(=O)OCC(=O)O)c(C)n2C(=O)c1ccc(Cl)cc1 [ACEMETACIN]
Not Active: all assays above

CC(C)(S)[C@@H](N)C(=O)O [PENICILLAMINE]
Not Active: all assays above

CC1COc2c(N3CCN(C)CC3)c(F)cc3c(=O)c(C(=O)O)cn1c23 (stereo not given) [OFLOXACIN]
Not Active: all assays above

Cc1[nH]cnc1CN1CCc2c(c3ccccc3n2C)C1=O [ALOSETRON]
Not Active: all assays above
